≈ marks a conversion by molar mass, not a printed value. Read-outs that look alike come from different tables or passages of the source.
How the values were obtained:
Bacillus subtilis DSM10 = assay: Antimicrobial activity, broth microdilution MIC; assay type: cell-based; settings: for MIC: read-out: Antimicrobial activity (MIC) BS
Experimental: To evaluate the biological effects of compounds 1–6, various assays were carried out. The antimicrobial activity of the isolated compounds against Bacillus subtilis DSM10, Escherichia coli DSM498, Candida tenuis MUCL29892, and Mucor plumbeus MUCL49355 was determined as described by Kuephadungphan and co-workers. The nematicidal activity against Caenorhabditis elegans was investigated using a microtiter plate assay according to Helaly and co-workers, while the cytotoxicity was tested against murine fibroblast (L929) and human HeLa (KB3.1) cell lines according to Chepkirui and co-workers.
Biological activity screening of compounds 1–6
Antimicrobial activity assay
The minimum inhibitory concentration (MIC) of compounds 1–6 was determined using the broth microdilution method according to Kuephadungphan et al.4 against B. subtilis DSM10, E. coli DSM498, C. tenuis MUCL29892 and M. plumbeus MUCL49355. Stock suspension of each bacterium and yeast (100 μL) was transferred to 100 mL of EBS medium and YM medium, respectively.
Suspensions of B. subtilis and C. tenuis were incubated on a rotary shaker at 30 °C for 18–24 h while E. coli was grown at 37 °C for 24 h. After incubation, the suspension was adjusted to a concentration of 6.7 × 10^5 cells/mL using a hemacytometer. The spore suspension of M. plumbeus was prepared at a concentration of 6.7 × 10^5 conidia/mL using YM medium. The determination of MIC was performed in a 96-well microtiter plate. The compounds dissolved in methanol at a concentration of 4.5 mg/mL (20 μL) were transferred to the first row of the plate. Standard antibiotics including ciprofloxacin (bacteria) and nystatin (yeast and fungus), and methanol were used as positive and negative controls, respectively. Inoculum suspension (280 μL) was added to the first row containing compounds and 150 μL were added to the rest. The solutions were then serially 2-fold diluted to 8 concentrations ranging from 2.34–300 μg/mL. Plates were incubated at 30 °C on a microplate-vibrating shaker for 24 h for bacteria and 48 h for yeast and filamentous fungus. […]
The assay was kindly conducted by Wera Collisi, Department of Microbial Drugs, Helmholtz Centre of Infection Research, Germany. The tested cell lines were cultured in EBM -2 (Lonza) sup plemented with 10% fetal bovine serum (Gibco) under 10% CO2 at 37 °C. A 60 µL of serial dilutions from an initial stock (1 mg/mL) of the test compounds in MeOH was added to 120 µL aliquots of a cell suspension (50,000 cells/mL) in 96-well microplates.
After incubation for five days, 20 µL of MTT in phosphate buffered saline (PBS) were added to give a final concentration of 0.5 mg/mL. The plates were further incubated for two hours. The precipitate

S. aureus DSM1104 = assay: Bacteriostatic and bactericidal activity assay (Bioscreen growth curves, MBC on agar); assay type: cell-based, Staphylococcus aureus; settings: for MIC90: read-out: Bacteriostatic activity MIC90; for Growth of S. aureus cells relative to growth control: at the lowest concentration where the biofilm formation was interrupted
Experimental: The assay was performed with each concentration tested in quadruplicates. The MIC was considered as the lowest concentration where the percentage of inhibition was higher than or equal to 90%. The minimum bactericidal concentration (MBC) of isolated compounds was also determined by transferring an aliquot of 2 µL from all concentrations tested onto nutrient agar (NA) plates, which were then incubated at 30 °C for 24 h. The MBC endpoint was defined as the lowest concentration of the compounds that killed microorganisms, where no visible growth of the microorganism tested was observed on the agar plates. The experimental procedures and the results are given in detail in Supporting Information File 1. […]
Bacteriostatic and bactericidal activity assay […]
aeruginosa PA14 were further evaluated for their bacteriostatic and bactericidal activit ies. The assay was performed in the Bioscreen 100 -well Honeycomb plate according to the protocol described by Yuyama et al. 13 where the MIC values were determined. The bacterial inoculum was prepared by growing S. aureus DSM1104 in Luria -Bertani broth (LB) for 24 h at 30 °C and then adjusting to 0.5 McFarland turbidity standard. The 0.5 McFarland bacterial suspension (296.25 µL) was transferred to the well containing 3.75 µL of each compound (20 mg/mL) and was subsequently two -fold diluted to give 8 concentrations ranging from 250 –1.95 µg/mL. Since compound 2 and the remaining five compounds could completely be dissolved in MeOH and dimethyl sulfoxide (DMSO), respectively, MeOH and DMSO were used as the solvent controls. The assay was performed with each concentration tested in quadruplicate. The bacterial growth was monitored on the Bioscreen -C automated growth curve analysis system (Oy Growth Curves AB Ltd, Helsinki, Finland) for 24 h with the optical density at 600 nm measured at 15 -min intervals. The MIC of each compound tested was read at 24 h of incubation and was considered as the lowest concentration where the percentage of inhibition was higher than or equal to 90%. Herein, the minimum bactericidal concentration (MBC) of isolated compounds was also determined by transferring an aliquot of 2 µL from all concentration tested onto Nutrient Agar (NA) plates which were then incubate d at 30 °C for 24 h. The MBC endpoint was defined as the lowest concentration of the compounds that kill microorganisms where no visible growth of the microorganism tested was observed on the agar plates.

[1] = Bacillus subtilis DSM10, 24 h, range 2.34–300 μg/mL, NA = No activity
[2] = S. aureus, minimum bactericidal concentration, no visible growth on NA plates, 30 °C, 24 h
[3] = Staphylococcus aureus, DSM1104, 24 h

| SMILES | Antimicrobial activity (MIC) BS (Bacillus subtilis DSM10; [1]) [mg/L] | MIC (Bacillus subtilis DSM10; Bacillus subtilis, DSM10, 24 h) [mg/L] | Cell growth (%) at 1.9 µg/ml (S. aureus DSM1104; S. aureus, 24 h) [%] | Cell growth (%) at 3.9 µg/ml (S. aureus DSM1104; S. aureus, 24 h) [%] | Cell growth (%) at 7.8 µg/ml (S. aureus DSM1104; S. aureus, 24 h) [%] | Cell growth (%) at 15.6 µg/ml (S. aureus DSM1104; S. aureus, 24 h) [%] | Cell growth (%) at 31.3 µg/ml (S. aureus DSM1104; S. aureus, 24 h) [%] | Cell growth (%) at 62.5 µg/ml (S. aureus DSM1104; S. aureus, 24 h) [%] | Cell growth (%) at 125 µg/ml (S. aureus DSM1104; S. aureus, 24 h) [%] | Cell growth (%) at 250 µg/ml (S. aureus DSM1104; S. aureus, 24 h) [%] | MBC (S. aureus DSM1104; [2]) | MBC (S. aureus DSM1104; [3]) [mg/L] | MIC90 (S. aureus DSM1104; [3]) [mg/L] | Growth of S. aureus cells relative to growth control (S. aureus DSM1104) | MIC (Bacillus subtilis DSM10; [1]) [mg/L] | MIC90 (S. aureus DSM1104; Staphylococcus aureus, DSM1104, S. aureus, lowest concentration with inhibition >= 90% at 24 h) [mg/L] | MBC (S. aureus DSM1104; Staphylococcus aureus, DSM1104, S. aureus, minimum bactericidal concentration, no visible growth on NA plates, 30 °C, 24 h, read-out: MBC) [mg/L] |
| --- | --- | --- | --- | --- | --- | --- | --- | --- | --- | --- | --- | --- | --- | --- | --- | --- | --- |
| COc1cc(O)c2c(O)c3c(cc2c1-c1c(OC)cc(O)c2c(O)c4c(cc12)CC(C)OC4=O)CC(C)OC3=O (stereo not shown) [Pigmentosin A (1), pigmentosin A] | 12.5 | 12.5 (≈ 22.9 µM) | 89.5 | 53.2 | 32.8 | 30.3 | 25.4 | 22.6 | 23.8 | 32.5 | higher than 250 µg/ml | > 250 | > 250 | more than 80% |  |  |  |
| COc1cc(O)c2c(O)c3c(cc2c1-c1c(OC)cc(O)c2c(O)c4c(cc12)CC(CC(C)O)OC4=O)CC(C)OC3=O (stereo not shown) [Pigmentosin B (2), pigmentosin B] | 100 |  | 100 | 94.4 | 84.9 | 54.3 | 40.9 | 42.8 | 29.9 | 26.8 | higher than 250 µg/ml |  |  | more than 80% | 100 (≈ 169 µM) | > 250 | > 250 |

From PMC6941404, “Pigmentosins from Gibellula sp. as antibiofilm agents and a new glycosylated asperfuran from Cordyceps javanica” (Beilstein Journal of Organic Chemistry, 2019)
